Results published in the supplement of paper PMC10331698.
± gives the standard deviation of the averaged measurements.

Key:
Assay in all cases: level (log10 ratio to DMSO vehicle control); higher = higher biomarker level / cell amount than vehicle control
Perfluorononanoic acid = compound: O=C(O)C(F)(F)C(F)(F)C(F)(F)C(F)(F)C(F)(F)C(F)(F)C(F)(F)C(F)(F)F [Perfluorononanoic acid] (in DMSO)
Procedure: (§1)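 BioMAP Diversity Plus panel of 12 human primary cell co-culture systems (3C, 4H, LPS, SAg, BT, BF4T, BE3C, CASM3C, HDF3CGF, KF3CT, MyoF, Mphg). Compounds were added 1 h before stimulation and left for 24 h (MyoF 48 h; BT 72 h for soluble read-outs or 6 d for IgG). Biomarkers were read by ELISA, cytotoxicity by SRB, PBMC viability and proliferation by Alamar Blue. Each well value was divided by the mean of 8 DMSO control wells on the same plate and log10 transformed; duplicate blinded samples were tested at 4 concentrations.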

[1] = compound: OCC(F)(F)C(F)(F)C(F)(F)C(F)(F)C(F)(F)C(F)(F)CO [1H,1H,8H,8H-Perfluorooctane-1,8-diol] (in DMSO)
Procedure: as §1

[2] = compound: O=S(=O)(O)CCC(F)(F)C(F)(F)C(F)(F)C(F)(F)C(F)(F)C(F)(F)C(F)(F)C(F)(F)F [8:2 Fluorotelomer sulfonic acid] (in DMSO)
Procedure: as §1

[3] = compound: OCC(F)(F)OC(F)(F)C(F)(F)OC(F)(F)C(F)(F)OC(F)(F)CO [1H,1H,11H,11H-Perfluorotetraethylene glycol] (in DMSO)
Procedure: as §1

[4] = compound: O=C(O)CCC(F)(C(F)(F)F)C(F)(F)F [4,4-bis(Trifluoromethyl)-4-fluoropropanoic acid] (in DMSO)
Procedure: as §1

[5] = compound: CCOC(=O)CC(=O)C(F)(F)C(F)(F)F [Ethyl pentafluoropropionyl acetate] (in DMSO)
Procedure: as §1

Perfluoroundecanoic acid = compound: O=C(O)C(F)(F)C(F)(F)C(F)(F)C(F)(F)C(F)(F)C(F)(F)C(F)(F)C(F)(F)C(F)(F)C(F)(F)F [Perfluoroundecanoic acid] (in DMSO); settings: 6700 nM
Procedure: as §1

[6] = compound: CO[Si](C)(CCC(F)(F)C(F)(F)C(F)(F)C(F)(F)C(F)(F)C(F)(F)F)OC [Dimethoxymethyl((perfluorohexyl)ethyl)silane] (in DMSO)
Procedure: as §1

Test System	level (log10) (Perfluorononanoic acid; 6700 nM)	level (log10) (Perfluorononanoic acid; 20000 nM)	level (log10) ([1]; 6700 nM)	level (log10) ([1]; 20000 nM)	level (log10) ([1]; 60000 nM)	level (log10) ([2]; 6700 nM)	level (log10) ([2]; 20000 nM)	level (log10) ([2]; 60000 nM)	level (log10) ([3]; 6700 nM)	level (log10) ([3]; 20000 nM)	level (log10) ([3]; 60000 nM)	level (log10) ([4]; 6700 nM)	level (log10) ([4]; 20000 nM)	level (log10) ([4]; 60000 nM)	level (log10) ([5]; 6700 nM)	level (log10) ([5]; 20000 nM)	level (log10) ([5]; 60000 nM)	level (log10) (Perfluoroundecanoic acid)	level (log10) ([6]; 6700 nM)	level (log10) ([6]; 20000 nM)
3C:CD87/uPAR	0.002 ± 0.011	-0.018 ± 0.016	-0.0245 ± 0.026	-0.0125 ± 0.0092	-0.019 ± 0.0028	0.0195 ± 0.016	-0.001 ± 0.058	-0.003 ± 0.03	0.008 ± 0.03	-0.007 ± 0.023	-0.0005 ± 0.011	0.051 ± 0.0057	0.0265 ± 0.0078	0.0295 ± 0.044	0.011 ± 0.0042	0.0075 ± 0.00071	-0.003 ± 0.011	-0.0125 ± 0.005	-0.002 ± 0.0071	-0.026 ± 0.021
3C:CXCL8/IL-8	0.0175 ± 0.0021	0.0475 ± 0.013	-0.0045 ± 0.0021	-0.0055 ± 0.0064	0.0245 ± 0.023	-0.0005 ± 0.13	0.012 ± 0.057	0.079 ± 0.024	0.003 ± 0.025	-0.009 ± 0.0099	-0.0045 ± 0.0035	0.0215 ± 0.039	0.014 ± 0.055	0.0285 ± 0.054	-0.0105 ± 0.0092	-0.006 ± 0.0071	0.022 ± 0.031	-0.022 ± 0.02	-0.007 ± 0.0014	0.011 ± 0.0057
3C:CXCL9/MIG	-0.0085 ± 0.0064	0.0045 ± 0.0064	0.0015 ± 0.0035	-0.0025 ± 0.005	0.0105 ± 0.013	-0.004 ± 0.0014	0.004 ± 0.013	-0.0045 ± 0.0035	0.0095 ± 0.022	0.0065 ± 0.026	0.012 ± 0.0028	0.006 ± 0.0071	-0.0075 ± 0.0035	0.0015 ± 0.0064	0.001 ± 0.0028	-0.0015 ± 0.0092	0.0025 ± 0.0078	0.0025 ± 0.005	-0.011 ± 0.0014	0.003 ± 0.0071
3C:HLA-DR	-0.024 ± 0.033	0.017 ± 0.021	-0.0115 ± 0.015	-0.007 ± 0.0085	-0.0175 ± 0.026	-0.0155 ± 0.012	-0.011 ± 0.0071	-0.011 ± 0.0085	-0.0055 ± 0.049	-0.001 ± 0.023	-0.047 ± 0.028	-0.0125 ± 0.023	-0.0085 ± 0.012	-0.0065 ± 0.0035	0.019 ± 0.0099	0.0125 ± 0.054	0.01 ± 0.047	-0.023 ± 0.0014	0.013 ± 0.014	0.029 ± 0.013
3C:Proliferation	0.0095 ± 0.073	0.0795 ± 0.03	-0.059 ± 0.024	-0.0565 ± 0.013	-0.106 ± 0.042	0.004 ± 0.086	-0.0315 ± 0.083	-0.053 ± 0.018	-0.04 ± 0.067	-0.116 ± 0.061	-0.248 ± 0.049	-0.05 ± 0.051	-0.015 ± 0.058	0.0345 ± 0.03	-0.0145 ± 0.043	-0.033 ± 0.011	-0.0135 ± 0.026	0.027 ± 0.013	0.003 ± 0.014	-0.0055 ± 0.03
3C:SRB	-0.002 ± 0.0042	-0.003	0.012 ± 0.017	0.0035 ± 0.025	-0.0045 ± 0.04	-0.017 ± 0.0057	-0.019 ± 0.018	-0.0705 ± 0.028	0.003 ± 0.0071	-0.0185 ± 0.013	-0.079 ± 0.033	-0.001 ± 0.0057	0.0045 ± 0.019	0.0125 ± 0.0078	0.006 ± 0.0085	0.007 ± 0.0085	0.01 ± 0.034	0.0095 ± 0.015	-0.006 ± 0.0028	0.0085 ± 0.0035
4H:CCL2/MCP-1	-0.074 ± 0.013	-0.0405 ± 0.005	-0.058 ± 0.04	-0.0485 ± 0.018	-0.012 ± 0.02	-0.001 ± 0.014	-0.033 ± 0.016	0.0125 ± 0.046	-0.0525 ± 0.029	-0.126 ± 0.0071	-0.196 ± 0.027	0.016 ± 0.024	0.0275 ± 0.03	0.023 ± 0.047	-0.0235 ± 0.029	-0.0455 ± 0.064	-0.008 ± 0.1	-0.024 ± 0.023	-0.05 ± 0.033	0.011 ± 0.12
4H:CCL26/Eotaxin-3	-0.008 ± 0.0071	-0.03 ± 0.018	0.0095 ± 0.019	0.0125 ± 0.019	0.0125 ± 0.0021	0.0095 ± 0.06	-0.0325 ± 0.015	-0.075 ± 0.0042	-0.0255 ± 0.0064	-0.017 ± 0.044	0.0375 ± 0.028	-0.0225 ± 0.0064	0.006 ± 0.033	-0.0015 ± 0.049	-0.007 ± 0.024	0.006 ± 0.0085	-0.019 ± 0.018	0.016 ± 0.03	-0.0125 ± 0.023	0.011 ± 0.014
4H:CD62P/P-selectin	0.015 ± 0.0099	0.0605 ± 0.011	-0.039 ± 0.0028	0.004 ± 0.011	0.0355 ± 0.0021	-0.0315 ± 0.09	-0.034 ± 0.099	-0.015 ± 0.071	-0.0065 ± 0.035	-0.0155 ± 0.018	-0.0055 ± 0.0078	-0.0155 ± 0.022	-0.032 ± 0.031	0.005 ± 0.086	0.005	-0.012 ± 0.038	0.009 ± 0.013	0.064 ± 0.0028	-0.0095 ± 0.033	-0.0135 ± 0.036
4H:CD87/uPAR	-0.0245 ± 0.026	-0.012 ± 0.0071	-0.013 ± 0.0014	-0.0065 ± 0.0021	-0.03 ± 0.017	0.026 ± 0.0028	-0.01 ± 0.023	-0.0345 ± 0.015	0.001 ± 0.082	-0.0065 ± 0.053	0.0315 ± 0.012	-0.0095 ± 0.056	0.0235 ± 0.035	0.0275 ± 0.067	-0.0055 ± 0.0064	-0.0585 ± 0.07	-0.0565 ± 0.13	-0.008 ± 0.025	0.004 ± 0.028	0.0195 ± 0.013
4H:CD106/VCAM-1	-0.0245 ± 0.032	-0.029 ± 0.0071	-0.0295 ± 0.005	0.015 ± 0.023	-0.007 ± 0.0085	-0.0065 ± 0.025	-0.018 ± 0.0014	-0.0375 ± 0.0021	0.0345 ± 0.011	-0.016 ± 0.011	-0.078 ± 0.016	-0.014 ± 0.0042	-0.004	-0.0205 ± 0.022	-0.003 ± 0.034	0.03 ± 0.018	0.0215 ± 0.013	-0.03 ± 0.0057	0.003 ± 0.011	0.0265 ± 0.0035
4H:SRB	0.002 ± 0.0014	-0.008 ± 0.0042	0.0105 ± 0.0021	0.006 ± 0.0071	-0.01 ± 0.025	-0.012 ± 0.0014	-0.0135 ± 0.012	-0.018 ± 0.033	-0.0045 ± 0.013	-0.032 ± 0.023	-0.0795 ± 0.037	-0.008	-0.0125 ± 0.011	0.014 ± 0.02	0.0055 ± 0.005	0.0045 ± 0.012	0.0015 ± 0.028	-0.0105 ± 0.011	-0.015 ± 0.013	0.0065 ± 0.00071
4H:VEGFR2	-0.0565 ± 0.039	-0.033 ± 0.0099	-0.0165 ± 0.042	0.01 ± 0.018	0.047 ± 0.068	-0.0345 ± 0.12	0.003 ± 0.0014	-0.026 ± 0.0028	0.008 ± 0.042	0.003 ± 0.05	0.07 ± 0.051	0.0265 ± 0.054	0.0195 ± 0.044	0.03 ± 0.045	-0.0375 ± 0.036	-0.0265 ± 0.06	-0.022 ± 0.15	-0.008 ± 0.0085	-0.023	-0.001 ± 0.027
BE3C:CD54/ICAM-1	-0.004 ± 0.034	0.0095 ± 0.0035	0.013 ± 0.0057	0.0185 ± 0.018	-0.003 ± 0.03	0.0215 ± 0.018	0.013 ± 0.0042	-0.02 ± 0.014	-0.004 ± 0.011	0.012 ± 0.0099	-0.048 ± 0.0099	-0.007	-0.019 ± 0.014	-0.002 ± 0.0099	0.0175 ± 0.011	0.0185 ± 0.018	0.006 ± 0.0042	0.004 ± 0.016	0 ± 0.0085	0 ± 0.0042
